Laboratory results from article PMC8097335, “A High‐Affinity Calmodulin‐Binding Site in the CyaA Toxin Translocation Domain is Essential for Invasion of Eukaryotic Cells” (Advanced Science, 2021).

Tests used:
calmodulin (CaM) = target: T1, calmodulin (CaM) (Homo sapiens, UniProt P0DP23); experiment: Peptide titrations by CaM followed by tryptophan fluorescence, and ITC (Kd for CaM); format: binding; conditions: for Kd: holo-CaM, from fluorescent titrations and ITC, 25 °C, average of at least three independent replicates; for Kd / ∆GKd for CaM: S.D. within ± 10%; for ∆GKd for CaM: ΔGKd = RTln(Kd); for Decrease of affinity for CaM relative to P454: from Table S3
T1 construct: made in house; host or cells: E. coli
Description: peptides by CaM and is expressed as follows: 𝐾𝐾 𝑑𝑑 = [𝑃𝑃 ]∗[𝐶𝐶𝐶𝐶𝐶𝐶 ][𝑃𝑃:𝐶𝐶𝐶𝐶𝐶𝐶] , given 𝐾𝐾𝑑𝑑[𝐶𝐶𝐶𝐶𝐶𝐶]= [𝑃𝑃 ][𝑃𝑃 :𝐶𝐶𝐶𝐶𝐶𝐶]and the fraction of complex, fP:CaM, i s: 𝑓𝑓𝑃𝑃:𝐶𝐶𝐶𝐶𝐶𝐶 = [𝑃𝑃 :𝐶𝐶𝐶𝐶𝐶𝐶 ][𝑃𝑃:𝐶𝐶𝐶𝐶𝐶𝐶]+[𝑃𝑃]= 11+ [𝑃𝑃 ]= 11+ 𝐾𝐾𝑑𝑑.

[1] = Peptide titrations by SUVs followed by tryptophan fluorescence (solution-to-membrane partition); format: physicochemical; conditions: for Partition coefficient KX: POPC:POPG 8:2 SUVs, buffer A pH 7.4, 25 °C, tryptophan fluorescence ratio 330/370 nm; for Partition coefficient KX / ∆GKx for POPC POPG 8:2: S.D. within ± 10%; for Kd: converted from KX: [W]/KX = Kd, [W] = 55.5 M, read-out: Kd for POPC:POPG 8:2; for ∆GKx for POPC POPG 8:2: ∆GKx = -RT Ln Kx
Experimental: Lipid vesicles preparation
Small unilamellar vesicles (SUVs) and large unilamellar vesicles (LUVs) were prepared with POPC and POPG at a molar ratio of 8:2, at a lipid concentration of 10 mM in buffer A, as previously described 1. Briefly, SUVs and LUVs were prepared by reverse phase evaporation and filtered through polycarbonate filters of 1 μm and 0.2 μm of pore size diameter to obtain L UV. SUVs were further sonicated. The hydrodynamic diameters and mean net charge of the vesicles were measured by dynamic light scattering (DLS) and electrophoretic mobility, respectively, using a ZetaSizer NanoZS (Malvern Pananalytical , Orsay, France) 11.
Peptide titrations bySUV s and CaM followed by tryptophan fluorescence
Titrations were carried out with a FP-8200 Jasco spectrofluorimeter, equipped with a Pelt ie r - thermostated ETC-272T at 25°C. A bandwidth of 5 nm was used for both excitation and […]
(Hellma, France) with constant stirring. Fluorescence emission was recorded between 300 and […]
400 nm at a scan rate of 100 nm/min, with an excitation wavelength of 280 nm. Fluorescence emission spectra were corrected for SUV or CaM baselines . Fluorescence intensity ratio at 330 nm over 370 nm was use d to measure the partition coefficient (K X) of peptides between the solution andmembrane s 1, 12 and the affinity (K d) of peptides for CaM 13.
Determination of partition coefficient KX and dissociation constant Kd from […]
The partition coefficient KX is defined as the ratio of protein in the lipid (PL) and in buffer […]
(PW) pha se s 12, 14, expressed by: KKXX = [LL ]? , giving[PPWW ] [PPWW ]= [WW], where [W] the […]
concentration of water (55.5 M) and [L] the lipid concentration.
The fraction of peptide partitioned into the membrane, fPL, is equal to:
ffPPLL = [PPLL ][PPTT ]= [PPLL ][PPLL ]+[PPWW ]= 11+([PPWW ])= 11+( [WW]), where PT is the total concentration of peptides [PP TT ]= [PP LL ]+ [PP WW ]. […]
The equations a re fitted to the experimental data using the KaleidaGraph software, providing the KX and K d value s. The partition coefficient is related to the apparent dissociation constant:
KKXX × KKdd = [WW ] and to the free energy of partition ΔG Kx = -RTln(K X), where ΔG is the free energy in kcal/mol, R the gas constant (R = 1.98 x 10-3 kcal/mol/K) and T the temperature i n Kelvin. The free energy of peptide CaM interaction, ∆G Kd, is given by ΔG Kd = RTln(K d).
Sedimentation velocity-Analytical ultracentrifugation (SV -AUC) […]
ratio 1:1 (at 70 µM each). Samples were incubated 2h at 20°C in the ultracentrifuge and, then span at 42,000 rpm in an An-50 Ti rotor. […]

[2] = Membrane permeabilization of ANTS/DPX-loaded LUVs; conditions: for Vesicle permeabilization (in words): ANTS:DPX LUVs POPC:POPG 8:2; for CP1/2, peptide concentration required to induce recovery of 50% of ANTS fluorescence intensity upon LUVs permeabilization: ANTS:DPX LUVs POPC:POPG 8:2, 0.45 mM lipid, buffer A pH 7.4, 25 °C, ex 390/em 515 nm, S.D. ± 5%
Experimental: To monitor membrane permeabilization induced by peptides, ANTS (fluorophore probe) and
DPX (quencher) were encapsulated into large unilamellar vesicles (LUVs). The LUVs were
prepared at a concentration of 10 mM lipid at a POPC:PO PG molar ratio of 8:2 containing 20
mM ANTS and 60 mM DPX. The multilamellar vesicle suspension was extrudedthrough 0.4-
and 0.2 μm polycarbonate filters to produce LUVs. The unencapsulated ANT S a nd DPX we re
removed by gel filtration with a 5 mL Sephadex G -25 column (GE Healthcare Life Sciences ).
For permeabilization assays, LUVs were incubated in buffer A at 0.45 mM lipid
concentration at 25°C in a 101-QS cuvette (Hellma, France) and under constant stirring.
excitation wavelength was set at 390 nm and the emission of ANTS was continuously
measured at 515 nm. The maximum intensity of permeabilization, corresponding to the
maximum recovery of ANTS fluorescence, was measured after addition of 0.1% of Triton
X100. The concentration of membrane-bound peptide s required to induce the recovery of half
intensity of the ANTS fluorescence (C P1/2) was extracted from the permeabilization intensity
a s a function of peptide concentration 1.
LUVs were incubated in buffer B at a lipid concentration of 0.45 mM.
After a few seconds of permeabilization,
holo-Ca M wa s added t o t he solution at a peptide:Ca M molar ratio of 1:3. EDT A wa s
subsequently added in excess to chelate calcium and convert holo -CaM to apo -C a M .

[3] = Synchrotron radiation circular dichroism, alpha-helical content (Bestsel); format: physicochemical; conditions: 25 °C, far-UV SRCD; for alpha-helical content, TFE 20%: 20% TFE; for alpha-helical content, POPC:POPG 8:2: SUVs POPC:POPG 8:2 at 2 mM lipid; for alpha-helical content, Solution: buffer A
Experimental: Synchrotron Radiation Circular Dichroism
Synchrotron radiation circular dichroism (SRCD) was performed on the DISCO beamline of the synchrotron SOLEIL (Saint -Aubin, France) . Spectra were recorded at 25°C with an integration time of 1.2 s and a bandwidth of 1 nm with a resolution of 1 nm. A far-UV spectrum represents the average of four individual scans. QS cells (Hellma, France) with a pathlength of 20, 50, 100 or 200 μm (depending on final protein concentrations) were used to record spectra in the fa r -UV range (from 190 to 250 nm). CD spectra of peptides and proteins were measured in buffers A and B, 20% of trifluoroethanol (TFE), in the presence of SUVs (POPC :PO PG 8: 2) or Ca M. Secondary structure content was estimated using Bestsel software […]
Table S8: Estimation of the α -helical content of P454-derived peptides. The secondary structure content is estimated using the on-line Bestsel software 17 available at http://bestsel.elte.hu/index.php. […]
peptide in buffer A, in 20% TFE and in the presence of POPC POPG (molar ratio 8:2) at 2 mM lipid concentration. The far -UV CD spectra of several P454-derived peptides are shown […]

| Compound | Kd (calmodulin (CaM)) | ∆GKd for CaM (calmodulin (CaM)) | Partition coefficient KX [1] | Kd [1] | ∆GKx for POPC POPG 8:2 [1] | Vesicle permeabilization (in words) [2] | CP1/2, peptide concentration required to induce recovery of 50% of ANTS fluorescence intensity upon LUVs permeabilization [2] | alpha-helical content, TFE 20% [3] | alpha-helical content, POPC:POPG 8:2 [3] | alpha-helical content, Solution [3] | Decrease of affinity for CaM relative to P454 (calmodulin (CaM)) |
| --- | --- | --- | --- | --- | --- | --- | --- | --- | --- | --- | --- |
| Ac-ASAHAGQRALQGAQAVAAAQRLVHAAALMTQ-NH2 [P454 W458A-I479A] | 2.04 µM | -7.7 kcal/mol | 4.2 ×10^3 | 13200 µM | -4.9 kcal/mol | do not permeabilize vesicles | > 80 µM | 55 ± 1% | 7 ± 3% | 10 ± 3% |  |
| Ac-ASAHWGQRAAQGAQAVAAAQRAVSAAALMTQ-NH2 [P454 L463A-L475A-H477S-I479A] |  | -6.8 kcal/mol | 35 ×10^3 | 1580 µM | -6.2 kcal/mol | do not permeabilize vesicles | > 50 µM | 38 ± 2% | 5 ± 2% | 4 ± 1% |  |
| Ac-ASAHWGQRALQGAQAVAAAQRLVHALALMTQ-NH2 [P454 I479L] | 0.06 µM | -9.8 kcal/mol | 700 ×10^3 | 80 µM | -7.9 kcal/mol |  | 0.04 µM | 51 ± 1% | 51 ± 5% | 13 ± 1% |  |
| CC[C@H](C)[C@H](NC(=O)[C@H](C)NC(=O)[C@H](Cc1c[nH]cn1)NC(=O)[C@@H](NC(=O)[C@H](CC(C)C)NC(=O)[C@H](CCCNC(=N)N)NC(=O)[C@H](CCC(N)=O)NC(=O)[C@H](C)NC(=O)[C@H](C)NC(=O)[C@H](C)NC(=O)[C@@H](NC(=O)[C@H](C)NC(=O)[C@H](CCC(N)=O)NC(=O)[C@H](C)NC(=O)CNC(=O)[C@H](CCC(N)=O)NC(=O)[C@H](CC(C)C)NC(=O)[C@H](C)NC(=O)[C@H](CCCNC(=N)N)NC(=O)[C@H](CCC(N)=O)NC(=O)CNC(=O)[C@@H](N)Cc1c[nH]c2ccccc12)C(C)C)C(C)C)C(=O)N[C@@H](C)C(=O)N[C@@H](CC(C)C)C(N)=O [P458] |  |  | 190 ×10^3 | 290 µM | -7.2 kcal/mol |  | 1.26 µM | 50% | 23 ± 2% | 10 ± 4% |  |
| Ac-ASAHWGQRALQGAQAVAAAQRAVSAAALMTQ-NH2 [P454 L475A-H477S-I479A] | 1.54 µM | -7.9 kcal/mol | 18 ×10^3 | 3160 µM | -5.8 kcal/mol |  | 9.03 µM | 51 ± 4% | 6 ± 2% | 6 ± 2% | ≈ 20 fold |
| Ac-ASAHWGQAALQGAQAVAAAQALVHAIALMTQ-NH2 [P454 R12A] |  |  | 280 ×10^3 | 200 µM | -7.4 kcal/mol |  | 0.14 µM |  |  |  |  |
| Ac-ASAHWGQRALQGAQAVAAAQRLVHAIAAMTQ-NH2 [P454 L481A] | 0.09 µM | -9.6 kcal/mol | 780 ×10^3 | 70 µM | -8 kcal/mol |  | 0.06 µM | 49 ± 1% | 44 ± 3% | 5 ± 1% |  |
| Ac-ASAHWGQRALQGAQAVAAAQRAVHAIALMTQ-NH2 [P454 L475A] | 0.12 µM | -9.4 kcal/mol | 350 ×10^3 | 160 µM | -7.7 kcal/mol |  | 0.64 µM | 45 ± 1% | 15 ± 1% | 5 ± 2% |  |
| Ac-ASAHWGQRALQGAQAVAAAQQLVHAIALMTQ-NH2 [P454 R2Q] | 0.18 µM | -9.2 kcal/mol | 150 ×10^3 | 370 µM | -7 kcal/mol |  | 0.11 µM |  |  |  |  |
| Ac-ASAHWGQRALQGAQAVAAAQRLVSAAALMTQ-NH2 [P454 H477S-I479A] | 1.19 µM | -8.0 kcal/mol | 105 ×10^3 | 530 µM | -6.8 kcal/mol |  | 1.88 µM | 51 ± 4% | 27 ± 3% | 2 ± 2% | ≈ 20 fold |
| Ac-ASAHWGQQALQGAQAVAAAQRLVHAIALMTQ-NH2 [P454 R1Q] | 0.1 µM | -9.5 kcal/mol | 190 ×10^3 | 290 µM | -7.2 kcal/mol |  | 0.22 µM |  |  |  |  |
